Measured values reported in patent publication US20260070945A1, “MACROCYCLIC IMMUNOMODULATORS” (Bristol-Myers Squibb Company, priority 2022, published 2026).
Where a SMILES comes first, the peptide text is derived from it. Bridges are numbered along the chain shown (N, C = ends). [ ]: non-standard residue; d: D form. The star is where a group is joined. ξ: configuration not given here. Phe(3-CF3) = N[C@@H](Cc1cccc(C(F)(F)F)c1)C(=O)O; Phe(4-COOH) = N[C@@H](Cc1ccc(C(=O)O)cc1)C(=O)O; Bip = N[C@@H](Cc1ccc(-c2ccccc2)cc1)C(=O)O; NH(CH2)14COOH = O=C(O)CCCCCCCCCCCCCCN*; Phe(3-Me) = Cc1cccc(C[C@H](N)C(=O)O)c1; Val(3-OH) = CC(C)(O)[C@H](N)C(=O)O; hArg = N=C(N)NCCCC[C@H](N)C(=O)O; 4Pal = N[C@@H](Cc1ccncc1)C(=O)O; Cha = N[C@@H](CC1CCCCC1)C(=O)O; Cit = NC(=O)NCCC[C@H](N)C(=O)O; Ile(3ξ) = CCC(C)[C@H](N)C(=O)O; Thr(3ξ) = CC(O)[C@H](N)C(=O)O; Carboxymethyl = O=C(O)C*; NMeA = CN[C@@H](C)C(=O)O; Orn = NCCC[C@H](N)C(=O)O; Aun = NCCCCCCCCCCC(=O)O; Dab = NCC[C@H](N)C(=O)O; Dap = NC[C@H](N)C(=O)O; AEEA = NCCOCCOCC(=O)O

target: T1, PD-1/PD-L1 interaction (PE-labeled human PD-L1-Ig binding to Jurkat cell line over-expressing human PD-1) (Homo sapiens, UniProt Q15116); test: Jurkat-PD-1 Cell Binding High-Content Screening Assay (CBA); details: Jurkat-hPD-1 cells, PE-labeled PD-L1-Ig 20 nM final; read-out: Jurkat HPD1 PDL1 IC50
T1 construct: expressed in transfected cells; host or cells: Jurkat
Procedure, shortened: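 Binding of 20 nM (final) PE-tagged PD-L1-Ig to compound-pretreated Jurkat-hPD-1 cells was measured by high-content imaging after 1 h. Pretreatment ran 2 h at 37 °C in DMEM with 10% fetal calf serum.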

T1 sequence (Q15116 25-288): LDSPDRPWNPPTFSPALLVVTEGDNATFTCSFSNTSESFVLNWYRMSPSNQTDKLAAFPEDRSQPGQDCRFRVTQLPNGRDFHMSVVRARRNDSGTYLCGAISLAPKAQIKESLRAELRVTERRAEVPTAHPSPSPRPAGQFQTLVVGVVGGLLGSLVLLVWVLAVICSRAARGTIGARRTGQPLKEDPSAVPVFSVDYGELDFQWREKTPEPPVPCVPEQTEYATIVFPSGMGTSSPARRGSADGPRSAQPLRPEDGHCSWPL

IC50	Compound
962 nM	Cc1cccc(C[C@@H]2NC(=O)[C@H](CC(=O)O)NC(=O)[C@H](Cc3ccc(C(=O)O)cc3)NC(=O)[C@H]([C@@H](C)O)NC(=O)CSC[C@@H](C(=O)N[C@@H](CCN)C(=O)NCCOCCOCC(=O)NCCOCCOCC(=O)NCCCCCCCCCCCCCCC(=O)O)NC(=O)[C@H](CCC(=O)O)NC(=O)[C@H](C(C)(C)O)NC(=O)[C@H](CC3CCCCC3)NC(=O)[C@H](CCN)NC(=O)[C@@H](CC(C)C)NC(=O)[C@H](C)N(C)C(=O)[C@H](Cc3ccc(C(=O)O)cc3)NC(=O)[C@H](Cc3ccc(-c4ccccc4)cc3)NC(=O)[C@H](Cc3ccc(C(=O)O)cc3)NC2=O)c1 [Example 1431] ({CH2CO}-T[Phe(4-COOH)]D[Phe(3-Me)][Phe(4-COOH)][Bip][Phe(4-COOH)][NMeA][dL][Dab][Cha][Val(3-OH)]EC[Dab][AEEA][AEEA]-{NH(CH2)14COOH}; thioether N-14)
13.4 nM	CC(C)C[C@H]1NC(=O)[C@H](C)N(C)C(=O)[C@H](C(C)C)NC(=O)[C@H](Cc2ccc(-c3ccccc3)cc2)NC(=O)[C@H](C(C)C)NC(=O)[C@H](Cc2c[nH]c3ccccc23)NC(=O)[C@H](CC(=O)O)NC(=O)[C@H](Cc2ccc(OCC(=O)O)cc2)NC(=O)[C@H](CCCCNC(=N)N)NC(=O)CSC[C@@H](C(=O)N[C@@H](CCN)C(=O)NCCCCCCCCCCC(=O)O)NC(=O)[C@H](CO)NC(=O)[C@H](C(C)C)NC(=O)[C@H](CC2CCCCC2)NC(=O)[C@H](CCN)NC1=O [Example 2191] ({CH2CO}-[hArg]Y(Carboxymethyl)DWV[Bip]V[NMeA][dL][Dab][Cha]VSC[Dab][Aun]-OH; thioether N-14)
21 nM	CC(C)C[C@@H]1NC(=O)[C@H](Cc2c[nH]c3ccccc23)NC(=O)[C@H](CC(=O)O)NC(=O)[C@H](Cc2ccc(OCC(=O)O)cc2)NC(=O)[C@H](Cc2ccc(OCC(=O)O)cc2)NC(=O)CSC[C@@H](C(=O)N[C@@H](CCCCN)C(=O)NCCCCCCCCCCC(=O)O)NC(=O)[C@H](CCCN)NC(=O)[C@H](C(C)C)NC(=O)[C@H](CC2CCCCC2)NC(=O)[C@H](CCN)NC(=O)[C@@H](CC(C)C)NC(=O)[C@H](C)N(C)C(=O)[C@H](C(C)C)NC(=O)[C@H](Cc2ccc(-c3ccccc3)cc2)NC1=O [Example 2157] ({CH2CO}-Y(Carboxymethyl)Y(Carboxymethyl)DWL[Bip]V[NMeA][dL][Dab][Cha]V[Orn]CK[Aun]-OH; thioether N-14)
13.2 nM	CC(C)C[C@@H]1NC(=O)[C@H](Cc2c[nH]c3ccccc23)NC(=O)[C@H](CC(=O)O)NC(=O)[C@H](Cc2ccc(C(=O)O)cc2)NC(=O)[C@H](Cc2ccc(OCC(=O)O)cc2)NC(=O)CSC[C@@H](C(=O)N[C@@H](CCCN)C(=O)NCCOCCOCC(=O)NCCCCCCCCCCC(=O)O)NC(=O)[C@H](CCCN)NC(=O)[C@H](C(C)C)NC(=O)[C@H](CC2CCCCC2)NC(=O)[C@H](CCN)NC(=O)[C@@H](CC(C)C)NC(=O)[C@H](C)N(C)C(=O)[C@H](C(C)C)NC(=O)[C@H](Cc2ccc(-c3ccccc3)cc2)NC1=O [Example 2135] ({CH2CO}-Y(Carboxymethyl)[Phe(4-COOH)]DWL[Bip]V[NMeA][dL][Dab][Cha]V[Orn]C[Orn][AEEA][Aun]-OH; thioether N-14)
9 nM	CC(C)C[C@@H]1NC(=O)[C@H](Cc2c[nH]c3ccccc23)NC(=O)[C@H](CC(=O)O)NC(=O)[C@H](Cc2ccncc2)NC(=O)[C@H](Cc2ccc(OCC(=O)O)cc2)NC(=O)CSC[C@@H](C(=O)NCCOCCOCC(=O)N[C@@H](CCCN)C(=O)NCCCCCCCCCCC(=O)O)NC(=O)[C@H](CCCNC(N)=O)NC(=O)[C@H](C(C)C)NC(=O)[C@H](CC2CCCCC2)NC(=O)[C@H](CCN)NC(=O)[C@@H](CC(C)C)NC(=O)[C@H](C)N(C)C(=O)[C@H](C(C)C)NC(=O)[C@H](Cc2ccc(-c3ccccc3)cc2)NC1=O [Example 2168] ({CH2CO}-Y(Carboxymethyl)[4Pal]DWL[Bip]V[NMeA][dL][Dab][Cha]V[Cit]C[AEEA][Orn][Aun]-OH; thioether N-14)
21.5 nM	Cc1cccc(C[C@@H]2NC(=O)[C@H](CC(=O)O)NC(=O)[C@H](Cc3ccc(OCC(=O)O)cc3)NC(=O)[C@H](C(C)O)NC(=O)CSC[C@@H](C(=O)N[C@@H](CCN)C(=O)NCCCCCCCCCCC(=O)O)NC(=O)[C@H](C(C)O)NC(=O)[C@H](C(C)C)NC(=O)[C@H](CC3CCCCC3)NC(=O)[C@H](CCN)NC(=O)[C@@H](CC(C)C)NC(=O)[C@H](C)N(C)C(=O)[C@H](Cc3ccc(OCC(=O)O)cc3)NC(=O)[C@H](Cc3ccc(-c4ccccc4)cc3)NC(=O)[C@H](Cc3ccc(C(=O)O)cc3)NC2=O)c1 (stereo partly drawn) [Example 2353] ({CH2CO}-[Thr(3ξ)]Y(Carboxymethyl)D[Phe(3-Me)][Phe(4-COOH)][Bip]Y(Carboxymethyl)[NMeA][dL][Dab][Cha]V[Thr(3ξ)]C[Dab][Aun]-OH; thioether N-14)
24.7 nM	CC(C)C[C@@H]1NC(=O)[C@H](Cc2c[nH]c3ccccc23)NC(=O)[C@H](CC(=O)O)NC(=O)[C@H](Cc2ccncc2)NC(=O)[C@H](Cc2ccc(OCC(=O)O)cc2)NC(=O)CSC[C@@H](C(=O)N[C@@H](CCCN)C(=O)NCCOCCOCC(=O)NCCCCCCCCCCC(=O)O)NC(=O)[C@H](CCCNC(N)=O)NC(=O)[C@H](C(C)C)NC(=O)[C@H](CC2CCCCC2)NC(=O)[C@H](CN)NC(=O)[C@@H](CC(C)C)NC(=O)[C@H](C)N(C)C(=O)[C@H](C(C)C)NC(=O)[C@H](Cc2ccc(-c3ccccc3)cc2)NC1=O [Example 2166] ({CH2CO}-Y(Carboxymethyl)[4Pal]DWL[Bip]V[NMeA][dL][Dap][Cha]V[Cit]C[Orn][AEEA][Aun]-OH; thioether N-14)
26.8 nM	CC(=O)NCCCC[C@@H]1NC(=O)[C@H](Cc2ccc(-c3ccccc3)cc2)NC(=O)[C@H](C(C)C)NC(=O)[C@H](Cc2cccc(C)c2)NC(=O)[C@H](CC(=O)O)NC(=O)[C@H](Cc2ccc(OCC(=O)O)cc2)NC(=O)[C@H](Cc2ccc(OCC(=O)O)cc2)NC(=O)CSC[C@@H](C(=O)N[C@@H](CCN)C(=O)NCCCCCCCCCCC(=O)O)NC(=O)[C@H](CO)NC(=O)[C@H](C(C)O)NC(=O)[C@H](CC2CCCCC2)NC(=O)[C@H](CCN)NC(=O)[C@@H](CC(C)C)NC(=O)[C@H](C)N(C)C1=O (stereo partly drawn) [Example 2371] ({CH2CO}-Y(Carboxymethyl)Y(Carboxymethyl)D[Phe(3-Me)]V[Bip]K(Ac)[NMeA][dL][Dab][Cha][Thr(3ξ)]SC[Dab][Aun]-OH; thioether N-14)

same assay, conditions: PE-labeled PD-L1-Ig 20 nM final, Jurkat-hPD-1 cells; read-out: Jurkat HPD1 PDL1 IC50

IC50	Compound
393 nM	Cc1cccc(C[C@@H]2NC(=O)[C@H](CC(=O)O)NC(=O)[C@H](Cc3ccc(OCC(=O)O)cc3)NC(=O)[C@H](C(C)O)NC(=O)CSC[C@@H](C(=O)N[C@@H](CO)C(=O)NCCOCCOCC(=O)NCCCCCCCCCCC(=O)O)NC(=O)[C@H](CCC(=O)O)NC(=O)[C@H](C(C)(C)O)NC(=O)[C@H](CC3CCCCC3)NC(=O)[C@H](CCN)NC(=O)[C@@H](CC(C)C)NC(=O)[C@H](C)N(C)C(=O)[C@H](Cc3ccc(OCC(=O)O)cc3)NC(=O)[C@H](Cc3ccc(-c4ccccc4)cc3)NC(=O)[C@H](Cc3ccc(OCC(=O)O)cc3)NC2=O)c1 (stereo partly drawn) [Example 2507] ({CH2CO}-[Thr(3ξ)]Y(Carboxymethyl)D[Phe(3-Me)]Y(Carboxymethyl)[Bip]Y(Carboxymethyl)[NMeA][dL][Dab][Cha][Val(3-OH)]ECS[AEEA][Aun]-OH; thioether N-14)
3.1 nM	CCC(C)[C@@H]1NC(=O)[C@H](Cc2ccc(-c3ccccc3)cc2)NC(=O)[C@H](CC(C)C)NC(=O)[C@H](Cc2c[nH]c3ccccc23)NC(=O)[C@H](CC(=O)O)NC(=O)[C@H](Cc2ccc(OCC(=O)O)cc2)NC(=O)[C@H](Cc2ccc(OCC(=O)O)cc2)NC(=O)CSC[C@@H](C(=O)N[C@@H](CCN)C(=O)NCCOCCOCC(=O)NCCCCCCCCCCC(=O)O)NC(=O)[C@H](Cc2cnc[nH]2)NC(=O)[C@H](C(C)(C)O)NC(=O)[C@H](CC2CCCCC2)NC(=O)[C@H](CCN)NC(=O)[C@@H](CC(C)C)NC(=O)[C@H](C)N(C)C1=O (stereo partly drawn) [Example 2515] ({CH2CO}-Y(Carboxymethyl)Y(Carboxymethyl)DWL[Bip][Ile(3ξ)][NMeA][dL][Dab][Cha][Val(3-OH)]HC[Dab][AEEA][Aun]-OH; thioether N-14)
383 nM	CC(C)C[C@H]1NC(=O)[C@H](C)N(C)C(=O)[C@H](Cc2ccc(C(=O)O)cc2)NC(=O)[C@H](Cc2ccc(-c3ccccc3)cc2)NC(=O)[C@H](Cc2ccc(C(=O)O)cc2)NC(=O)[C@H](Cc2cccc(C(F)(F)F)c2)NC(=O)[C@H](CC(=O)O)NC(=O)[C@H](Cc2ccc(C(=O)O)cc2)NC(=O)[C@H](C(C)O)NC(=O)CSC[C@@H](C(=O)N[C@@H](CCN)C(=O)NCCOCCOCC(=O)NCCOCCOCC(=O)NCCCCCCCCCCCCCCC(=O)O)NC(=O)[C@H](CCC(=O)O)NC(=O)[C@H](C(C)C)NC(=O)[C@H](CC2CCCCC2)NC(=O)[C@H](CCN)NC1=O (stereo partly drawn) [Example 2613] ({CH2CO}-[Thr(3ξ)][Phe(4-COOH)]D[Phe(3-CF3)][Phe(4-COOH)][Bip][Phe(4-COOH)][NMeA][dL][Dab][Cha]VEC[Dab][AEEA][AEEA]-{NH(CH2)14COOH}; thioether N-14)
9.2 nM	CC(C)C[C@H]1NC(=O)[C@H](C)N(C)C(=O)[C@H](Cc2ccc(OCC(=O)O)cc2)NC(=O)[C@H](Cc2ccc(-c3ccccc3)cc2)NC(=O)[C@H](Cc2ccc(C(=O)O)cc2)NC(=O)[C@H](Cc2cccc(C(F)(F)F)c2)NC(=O)[C@H](CC(=O)O)NC(=O)[C@H](Cc2ccc(OCC(=O)O)cc2)NC(=O)[C@H](Cc2cnc[nH]2)NC(=O)CSC[C@@H](C(=O)N[C@@H](CCN)C(=O)NCCCCCCCCCCC(=O)O)NC(=O)[C@H](CCC(=O)O)NC(=O)[C@H](C(C)C)NC(=O)[C@H](CC2CCCCC2)NC(=O)[C@H](CCN)NC1=O [Example 2581] ({CH2CO}-HY(Carboxymethyl)D[Phe(3-CF3)][Phe(4-COOH)][Bip]Y(Carboxymethyl)[NMeA][dL][Dab][Cha]VEC[Dab][Aun]-OH; thioether N-14)
